Source: patent publication US8129371B2, “Thienopyrimidine and pyrazolopyrimidine compounds and their use as mTOR kinase and PI3 kinase inhibitors” (Wyeth LLC, priority 2007, dated 2012)

Key:
Human mTOR (FLAG-TOR) = target: T1, Human mTOR (FLAG-TOR) (Homo sapiens, UniProt P42345); test: Human mTOR kinase assay with purified enzyme, DELFIA format; type: biochemical
T1 construct: FLAG
Procedure, shortened: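 DELFIA readout: Eu-anti-P(T389)-S6K antibody (40 ng/mL, 1 h) on captured His6-S6K from the stopped reaction. Kinase step used purified FLAG-tagged human mTOR with test compound in HEPES (pH 7.4)/MnCl2/DTT buffer, 2 h at room temperature (linear 1–6 h), terminated by EDTA/EGTA.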

PI3K [1] = target: T2, PI3K (Homo sapiens, UniProt P42336); test: Fluorescence polarization assay for PI3K; type: biochemical; conditions: PI3 Kinase α; read-out: PI3 Kinase α IC50
T2 construct: PI3 Kinase α IC50; other: PI3 Kinase α; other: PI3 Kinase α isoform, fluorescence polarization
Procedure, shortened: (§1)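 Fluorescence-polarization competition readout: after 30–60 min of PIP2/ATP turnover in 1% DMSO, a stop mix with GST-GRP (70 nM) and red probe (10 nM) was added.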

PI3K [2] = target: T3, PI3K (Homo sapiens, UniProt P48736); test: Fluorescence polarization assay for PI3K; type: biochemical; conditions: PI3 Kinase γ; read-out: PI3 Kinase γ IC50
T3 construct: PI3 Kinase γ IC50; other: PI3 Kinase γ; other: PI3 Kinase γ isoform, fluorescence polarization
Procedure, shortened: as §1

prostate line LNCap = test: In vitro cell culture growth assay (MTS), LNCap; type: cell-based; conditions: Homo sapiens, LNCaP, 72 h, LNCap cells, three days after drug treatment
Procedure, shortened: (§2)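 The readout was MTS dye metabolism at 490 nm, taken after 3-day drug exposure that began the day after seeding. Growth was expressed as percent of vehicle-treated wells in the same plate.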

breast line MDA468 = test: In vitro cell culture growth assay (MTS), MDA468; type: cell-based; conditions: Homo sapiens, 72 h, MDA468 cells, three days after drug treatment
Procedure, shortened: as §2

T3 sequence (P48736 whole entry, canonical isoform): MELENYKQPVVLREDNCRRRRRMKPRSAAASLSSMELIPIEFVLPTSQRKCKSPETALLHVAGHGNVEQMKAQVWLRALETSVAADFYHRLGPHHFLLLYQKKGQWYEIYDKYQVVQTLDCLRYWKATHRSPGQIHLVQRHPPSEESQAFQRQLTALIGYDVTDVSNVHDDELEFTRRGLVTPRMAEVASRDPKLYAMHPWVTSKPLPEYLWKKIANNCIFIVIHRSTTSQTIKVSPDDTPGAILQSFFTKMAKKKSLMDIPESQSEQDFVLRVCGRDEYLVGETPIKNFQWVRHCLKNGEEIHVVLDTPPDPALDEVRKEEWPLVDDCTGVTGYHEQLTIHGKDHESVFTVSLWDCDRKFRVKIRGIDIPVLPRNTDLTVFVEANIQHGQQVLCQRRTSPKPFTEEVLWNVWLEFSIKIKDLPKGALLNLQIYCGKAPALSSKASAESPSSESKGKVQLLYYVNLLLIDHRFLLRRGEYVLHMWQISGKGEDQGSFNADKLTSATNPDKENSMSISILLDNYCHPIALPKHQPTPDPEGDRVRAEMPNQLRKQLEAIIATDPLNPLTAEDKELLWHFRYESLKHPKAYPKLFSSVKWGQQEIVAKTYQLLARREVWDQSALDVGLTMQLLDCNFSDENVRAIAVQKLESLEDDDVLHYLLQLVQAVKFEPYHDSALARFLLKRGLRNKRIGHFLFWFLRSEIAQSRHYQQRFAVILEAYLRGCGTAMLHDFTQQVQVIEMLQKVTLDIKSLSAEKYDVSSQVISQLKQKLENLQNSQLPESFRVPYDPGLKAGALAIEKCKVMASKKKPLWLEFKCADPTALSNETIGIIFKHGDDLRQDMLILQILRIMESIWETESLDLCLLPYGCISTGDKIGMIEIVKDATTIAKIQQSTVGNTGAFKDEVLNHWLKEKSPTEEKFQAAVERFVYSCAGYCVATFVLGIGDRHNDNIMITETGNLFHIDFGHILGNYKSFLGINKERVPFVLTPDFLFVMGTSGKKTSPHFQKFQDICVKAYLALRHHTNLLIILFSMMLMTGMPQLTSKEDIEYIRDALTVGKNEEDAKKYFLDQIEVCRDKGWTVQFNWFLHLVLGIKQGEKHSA
T2 sequence (P42336 whole entry, canonical isoform): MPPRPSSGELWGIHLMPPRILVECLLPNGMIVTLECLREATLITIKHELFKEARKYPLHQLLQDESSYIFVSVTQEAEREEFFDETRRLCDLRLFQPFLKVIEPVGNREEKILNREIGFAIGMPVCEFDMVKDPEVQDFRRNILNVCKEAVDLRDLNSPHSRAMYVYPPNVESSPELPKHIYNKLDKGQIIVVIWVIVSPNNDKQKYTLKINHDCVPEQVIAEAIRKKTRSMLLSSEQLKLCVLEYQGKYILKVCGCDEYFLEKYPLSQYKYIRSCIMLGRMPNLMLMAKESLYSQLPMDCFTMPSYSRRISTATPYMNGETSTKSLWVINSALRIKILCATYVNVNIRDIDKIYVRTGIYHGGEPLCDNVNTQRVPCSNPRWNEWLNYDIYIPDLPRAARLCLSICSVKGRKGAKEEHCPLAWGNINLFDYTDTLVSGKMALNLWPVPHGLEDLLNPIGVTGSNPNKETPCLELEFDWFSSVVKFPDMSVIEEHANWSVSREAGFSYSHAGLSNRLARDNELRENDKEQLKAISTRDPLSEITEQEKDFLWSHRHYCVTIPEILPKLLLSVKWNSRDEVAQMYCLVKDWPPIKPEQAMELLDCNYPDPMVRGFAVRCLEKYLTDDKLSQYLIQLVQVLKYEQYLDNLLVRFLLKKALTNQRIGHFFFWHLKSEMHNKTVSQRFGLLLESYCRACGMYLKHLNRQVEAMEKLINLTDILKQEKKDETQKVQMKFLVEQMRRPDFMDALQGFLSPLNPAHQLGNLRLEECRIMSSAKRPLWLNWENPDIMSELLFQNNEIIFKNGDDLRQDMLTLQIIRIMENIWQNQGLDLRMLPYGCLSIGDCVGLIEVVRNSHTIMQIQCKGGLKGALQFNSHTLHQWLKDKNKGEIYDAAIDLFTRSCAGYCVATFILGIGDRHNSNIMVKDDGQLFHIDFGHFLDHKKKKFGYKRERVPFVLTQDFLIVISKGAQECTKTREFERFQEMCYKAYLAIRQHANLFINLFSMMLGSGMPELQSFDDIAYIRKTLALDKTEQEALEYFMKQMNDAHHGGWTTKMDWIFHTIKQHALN

Structure (SMILES) | IC50 (Human mTOR (FLAG-TOR)) | IC50 (PI3K [1]) | IC50 (PI3K [2]) | IC50 (prostate line LNCap) | IC50 (breast line MDA468)
CN(C)CCn1ncc2c(N3CC4CCC(C3)O4)nc(-c3ccc(NC(=O)Nc4ccc(CO)cc4)cc3)nc21 [Example 163, 1-(4-{1-[2-(dimethylamino)ethyl]-4-(8-oxa-3-azabicyclo[3.2.1]oct-3-yl)-1H-pyrazolo[3,4-d]pyrimidin-6-yl}phenyl)-3-[4-(hydroxymethyl)phenyl]urea] | 0.88 nM | 43 nM | 1290 nM | 28 nM | 90 nM
COC(=O)N1CCC(n2ncc3c(N4CC5CCC(C4)O5)nc(-c4ccc(NC(=O)NCCN)cc4)nc32)CC1 [Example 168, methyl 4-[6-(4-{[(2-aminoethyl)carbamoyl]amino}phenyl)-4-(8-oxa-3-azabicyclo[3.2.1]oct-3-yl)-1H-pyrazolo[3,4-d]pyrimidin-1-yl]piperidine-1-carboxylate] | 3.15 nM | 218 nM | 3220 nM | 1500 nM | 9000 nM
COC(=O)N1CCC(n2ncc3c(N4CC5CCC(C4)O5)nc(-c4ccc(NC(=O)NCCN(C)C)cc4)nc32)CC1 [Example 169, methyl 4-{6-[4-({[2-(dimethylamino)ethyl]carbamoyl}amino)phenyl]-4-(8-oxa-3-azabicyclo[3.2.1]oct-3-yl)-1H-pyrazolo[3,4-d]pyrimidin-1-yl}piperidine-1-carboxylate] | 40.5 nM | 422 nM | 5450 nM | 500 nM | 2200 nM
COC(=O)N1CCC(n2ncc3c(N4CC5CCC(C4)O5)nc(-c4ccc(NC(=O)NCCN5CCN(C)CC5)cc4)nc32)CC1 [Example 170, methyl 4-{6-[4-({[2-(4-methylpiperazin-1-yl)ethyl]carbamoyl}amino)phenyl]-4-(8-oxa-3-azabicyclo[3.2.1]oct-3-yl)-1H-pyrazolo[3,4-d]pyrimidin-1-yl}piperidine-1-carboxylate] | 51 nM | 705 nM | 4420 nM | 1300 nM | 6000 nM
COC(=O)N1CCC(n2ncc3c(N4CC5CCC(C4)O5)nc(-c4ccc(NC(=O)Nc5ccccc5CO)cc4)nc32)CC1 [Example 172, methyl 4-{6-[4-({[2-(hydroxymethyl)phenyl]carbamoyl}amino)phenyl]-4-(8-oxa-3-azabicyclo[3.2.1]oct-3-yl)-1H-pyrazolo[3,4-d]pyrimidin-1-yl}piperidine-1-carboxylate] | 3.05 nM | 1370 nM | 1730 nM | 200 nM | 1300 nM
CCn1ncc2c(N3CC4CCC(C3)O4)nc(-c3ccc(NC(=O)NCCN)cc3)nc21 [Example 173, 1-(2-aminoethyl)-3-{4-[1-ethyl-4-(8-oxa-3-azabicyclo[3.2.1]oct-3-yl)-1H-pyrazolo[3,4-d]pyrimidin-6-yl]phenyl}urea] | 2.25 nM | 270 nM | 3130 nM | 270 nM | 650 nM
CCn1ncc2c(N3CC4CCC(C3)O4)nc(-c3ccc(NC(=O)NCCNC)cc3)nc21 [Example 174, 1-{4-[1-ethyl-4-(8-oxa-3-azabicyclo[3.2.1]oct-3-yl)-1H-pyrazolo[3,4-d]pyrimidin-6-yl]phenyl}-3-[2-(methylamino)ethyl]urea] | 4.7 nM | 232 nM | 4980 nM | 190 nM | 700 nM
CCn1ncc2c(N3CC4CCC(C3)O4)nc(-c3ccc(NC(=O)NCCN(C)C)cc3)nc21 [Example 175, 1-[2-(dimethylamino)ethyl]-3-{4-[1-ethyl-4-(8-oxa-3-azabicyclo[3.2.1]oct-3-yl)-1H-pyrazolo[3,4-d]pyrimidin-6-yl]phenyl}urea] | 52 nM | 836 nM | 668 nM | 350 nM | 1250 nM
CCn1ncc2c(N3CC4CCC(C3)O4)nc(-c3ccc(NC(=O)NCCCN)cc3)nc21 [Example 176, 1-(3-aminopropyl)-3-{4-[1-ethyl-4-(8-oxa-3-azabicyclo[3.2.1]oct-3-yl)-1H-pyrazolo[3,4-d]pyrimidin-6-yl]phenyl}urea] | 3.55 nM | 386 nM | 9500 nM | 5500 nM | 28000 nM
CCn1ncc2c(N3CC4CCC(C3)O4)nc(-c3ccc(NC(=O)NCCCN(C)C)cc3)nc21 [Example 177, 1-[3-(dimethylamino)propyl]-3-{4-[1-ethyl-4-(8-oxa-3-azabicyclo[3.2.1]oct-3-yl)-1H-pyrazolo[3,4-d]pyrimidin-6-yl]phenyl}urea] | 69.5 nM | 1640 nM | > 10000 nM | 1200 nM | 4500 nM
CCn1ncc2c(N3CC4CCC(C3)O4)nc(-c3ccc(NC(=O)NCCN4CCN(C)CC4)cc3)nc21 [Example 178, 1-{4-[1-ethyl-4-(8-oxa-3-azabicyclo[3.2.1]oct-3-yl)-1H-pyrazolo[3,4-d]pyrimidin-6-yl]phenyl}-3-[2-(4-methylpiperazin-1-yl)ethyl]urea] | 87 nM | 959 nM | > 10000 nM | 1900 nM | 5800 nM
CCn1ncc2c(N3CC4CCC(C3)O4)nc(-c3ccc(NC(=O)NCCN4CCOCC4)cc3)nc21 [Example 179, 1-{4-[1-ethyl-4-(8-oxa-3-azabicyclo[3.2.1]oct-3-yl)-1H-pyrazolo[3,4-d]pyrimidin-6-yl]phenyl}-3-(2-morpholin-4-ylethyl)urea] | 66.5 nM | 482 nM | 9980 nM | 1700 nM | 5000 nM

Compounds with a lower IC50 (Human mTOR (FLAG-TOR)), results first:

IC50 (Human mTOR (FLAG-TOR)) | IC50 (PI3K [1]) | IC50 (PI3K [2]) | IC50 (prostate line LNCap) | Structure (SMILES) | IC50 (breast line MDA468)
0.08 nM | 29 nM | 1820 nM | < 1 nM | COC(=O)N1CCC(n2ncc3c(N4CC5CCC(C4)O5)nc(-c4ccc(NC(=O)Nc5ccc(CO)cc5)cc4)nc32)CC1 [Example 164, methyl 4-{6-[4-({[4-(hydroxymethyl)phenyl]carbamoyl}amino)phenyl]-4-(8-oxa-3-azabicyclo[3.2.1]oct-3-yl)-1H-pyrazolo[3,4-d]pyrimidin-1-yl}piperidine-1-carboxylate] | < 1 nM
0.095 nM | 54 nM | 2490 nM | < 1 nM | COC(=O)N1CCC(n2ncc3c(N4CC5CCC(C4)O5)nc(-c4ccc(NC(=O)Nc5ccc(CCO)cc5)cc4)nc32)CC1 [Example 165, methyl 4-{6-[4-({[4-(2-hydroxyethyl)phenyl]carbamoyl}amino)phenyl]-4-(8-oxa-3-azabicyclo[3.2.1]oct-3-yl)-1H-pyrazolo[3,4-d]pyrimidin-1-yl}piperidine-1-carboxylate] | < 1 nM
0.48 nM | 117 nM | 867 nM | < 1 nM | COC(=O)N1CCC(n2ncc3c(N4CC5CCC(C4)O5)nc(-c4ccc(NC(=O)Nc5ccc(N6CCN(C)CC6)cc5)cc4)nc32)CC1 [Example 166, methyl 4-{6-[4-({[4-(4-methylpiperazin-1-yl)phenyl]carbamoyl}amino)phenyl]-4-(8-oxa-3-azabicyclo[3.2.1]oct-3-yl)-1H-pyrazolo[3,4-d]pyrimidin-1-yl}piperidine-1-carboxylate] | 2 nM
0.425 nM | 234 nM | 1220 nM | < 1 nM | COC(=O)N1CCC(n2ncc3c(N4CC5CCC(C4)O5)nc(-c4ccc(NC(=O)Nc5ccc(N6CCN(C)CC6)nc5)cc4)nc32)CC1 [Example 167, methyl 4-{6-[4-({[6-(4-methylpiperazin-1-yl)pyridin-3-yl]carbamoyl}amino)phenyl]-4-(8-oxa-3-azabicyclo[3.2.1]oct-3-yl)-1H-pyrazolo[3,4-d]pyrimidin-1-yl}piperidine-1-carboxylate] | 4 nM
0.215 nM | 54 nM | 1830 nM | 5 nM | COC(=O)N1CCC(n2ncc3c(N4CC5CCC(C4)O5)nc(-c4ccc(NC(=O)Nc5cccc(CO)c5)cc4)nc32)CC1 [Example 171, methyl 4-{6-[4-({[3-(hydroxymethyl)phenyl]carbamoyl}amino)phenyl]-4-(8-oxa-3-azabicyclo[3.2.1]oct-3-yl)-1H-pyrazolo[3,4-d]pyrimidin-1-yl}piperidine-1-carboxylate] | 8 nM
0.275 nM | 56 nM | 1340 nM | < 1 nM | CCn1ncc2c(N3CC4CCC(C3)O4)nc(-c3ccc(NC(=O)Nc4ccc(N5CCN(C)CC5)cc4)cc3)nc21 [Example 180, 1-{4-[1-ethyl-4-(8-oxa-3-azabicyclo[3.2.1]oct-3-yl)-1H-pyrazolo[3,4-d]pyrimidin-6-yl]phenyl}-3-[4-(4-methylpiperazin-1-yl)phenyl]urea] | < 1 nM
0.18 nM | 175 nM | 3670 nM | < 1 nM | CCn1ncc2c(N3CC4CCC(C3)O4)nc(-c3ccc(NC(=O)Nc4ccc(N5CCOCC5)cc4)cc3)nc21 [Example 181, 1-{4-[1-ethyl-4-(8-oxa-3-azabicyclo[3.2.1]oct-3-yl)-1H-pyrazolo[3,4-d]pyrimidin-6-yl]phenyl}-3-(4-morpholin-4-ylphenyl)urea] | < 1 nM
